Source: ChEMBL document CHEMBL2401691, “Synthesis and optimization of a novel series of HCV NS3 protease inhibitors: 4-arylproline analogs” (Bioorg Med Chem Lett, 2013)
Values after ≈ are worked out from the molar mass of the structure shown.

How the values were obtained:
[1] = Solubility of the compound after 24 hrs at pH 7.2; format: physicochemical; settings: buffer
[2] = Half life in rat liver microsomes; format: ADME, Microsome
[3] = Half life in human liver microsomes; format: ADME, Microsome
[4] = Ratio of drug level in rat liver to plasma at 5 mg/kg, po after 6 hrs; format: ADME, organism-based; parameters: dose 5 mg/kg, route oral
[5] = Cmax in rat at 5 mg/kg, po; format: ADME, organism-based; parameters: dose 5 mg/kg, route oral; settings: in vivo
[6] = Drug uptake in rat liver at 5 mg/kg, po after 6 hrs; format: ADME, organism-based; parameters: dose 5 mg/kg, route oral; settings: read-out: Drug uptake
[7] = Volume of distribution at steady state in rat at 2 mg/kg, iv; format: ADME, organism-based; parameters: dose 2 mg/kg, route intravenous; settings: in vivo, read-out: Vdss
[8] = Plasma concentration in rat at 5 mg/kg, po after 6 hrs; format: ADME, organism-based; parameters: dose 5 mg/kg, route oral
[9] = Oral bioavailability in rat at 5 mg/kg; format: ADME, organism-based; settings: in vivo
[10] = Total clearance in rat at 2 mg/kg, iv; format: ADME, organism-based; parameters: dose 2 mg/kg, route intravenous; settings: in vivo
[11] = Half life in rat at 2 mg/kg, iv; format: ADME, organism-based; parameters: dose 2 mg/kg, route intravenous; settings: in vivo
[12] = AUC (0 to infinity) in rat at 5 mg/kg, po; format: ADME, organism-based; parameters: time infinity, dose 5 mg/kg, route oral; settings: plasma

| Structure (SMILES) | solubility at 24 h [1] [µg/mL] | half-life [2] [h] | half-life [3] [h] | other results |
| --- | --- | --- | --- | --- |
| C=C[C@@H]1C[C@]1(NC(=O)[C@@H]1C[C@@](OC)(c2ccc(-c3nccs3)cc2)CN1C(=O)[C@@H](NC(=O)OC1CCCC1)C(C)(C)C)C(=O)NS(=O)(=O)C1CC1 | 452 (≈ 609 µM) | 1.1 | 1.1 | – |
| C=C[C@@H]1C[C@]1(NC(=O)[C@@H]1C[C@@](OC)(c2ccc(-c3cccnc3)cc2)CN1C(=O)[C@@H](NC(=O)OC1CCCC1)C(C)(C)C)C(=O)NS(=O)(=O)C1CC1 | 940 (≈ 1280 µM) | 2.17 | 0.883 | – |
| C=C[C@@H]1C[C@]1(NC(=O)[C@@H]1C[C@@](OC)(c2ccc(-c3ccc(OC)cc3)cc2)CN1C(=O)[C@@H](NC(=O)OC1CCCC1)C(C)(C)C)C(=O)NS(=O)(=O)C1CC1 | 17 (≈ 22.2 µM) | 1.4 | 0.85 | – |
| C=C[C@@H]1C[C@]1(NC(=O)[C@@H]1C[C@@](OC)(c2ccc(-c3cscn3)cc2)CN1C(=O)[C@@H](NC(=O)OC1CCCC1)C(C)(C)C)C(=O)NS(=O)(=O)C1CC1 | 540 (≈ 728 µM) | 3.67 | 0.9 | – |
| C=C[C@@H]1C[C@]1(NC(=O)[C@@H]1C[C@@](OC)(c2ccc(-c3ccccc3)nc2)CN1C(=O)[C@@H](NC(=O)OC1CCCC1)C(C)(C)C)C(=O)NS(=O)(=O)C1CC1 | 600 (≈ 815 µM) | 2 | 1.45 | – |
| C=C[C@@H]1C[C@]1(NC(=O)[C@@H]1C[C@@](OC)(c2ccc(-c3ccccc3OC)cc2)CN1C(=O)[C@@H](NC(=O)OC1CCCC1)C(C)(C)C)C(=O)NS(=O)(=O)C1CC1 | 36 (≈ 47.1 µM) | – | 0.717 | – |
| C=C[C@@H]1C[C@]1(NC(=O)[C@@H]1C[C@@](OC)(c2ccc(-c3cc(C)ccc3OC)nc2)CN1C(=O)[C@@H](NC(=O)OC1CCCC1)C(C)(C)C)C(=O)NS(=O)(=O)C1CC1 | 310 (≈ 397 µM) | 1.42 | 1.4 | – |
| C=C[C@@H]1C[C@]1(NC(=O)[C@@H]1C[C@@](OC)(c2ccc(-c3ccc(C)cn3)cc2)CN1C(=O)[C@@H](NC(=O)OC1CCCC1)C(C)(C)C)C(=O)NS(=O)(=O)C1CC1 | – | – | 0.917 | – |
| C=C[C@@H]1C[C@]1(NC(=O)[C@@H]1C[C@@](OC)(c2ccc(-c3cccc(OC)c3)cc2)CN1C(=O)[C@@H](NC(=O)OC1CCCC1)C(C)(C)C)C(=O)NS(=O)(=O)C1CC1 | 19 (≈ 24.8 µM) | – | 1.12 | – |
| C=C[C@@H]1C[C@]1(NC(=O)[C@@H]1C[C@@](OC)(c2ccc(-c3ccccc3)cc2)CN1C(=O)[C@@H](NC(=O)OC1CCCC1)C(C)(C)C)C(=O)NS(=O)(=O)C1CC1 | 43 (≈ 58.5 µM) | 1.98 | 1.18 | Kp at 6 h [4]: 45; Cmax [5]: 320 nM; concentration at 6 h [6]: 2300 nM; Vd [7]: 3.04 L/kg; concentration at 6 h [8]: 50 nM; bioavailability [9]: 33%; clearance [10]: 28 mL/min/kg; half-life [11]: 2.94 h; AUC(0-inf) [12]: 1.32 µM·h |
| C=C[C@@H]1C[C@]1(NC(=O)[C@@H]1C[C@@](OC)(c2ccc(-c3cnn(C)c3)cc2)CN1C(=O)[C@@H](NC(=O)OC1CCCC1)C(C)(C)C)C(=O)NS(=O)(=O)C1CC1 | 540 (≈ 731 µM) | 2 | 1.37 | – |
| C=C[C@@H]1C[C@]1(NC(=O)[C@@H]1C[C@@](OC)(c2ccc(-c3nccs3)nc2)CN1C(=O)[C@@H](NC(=O)OC1CCCC1)C(C)(C)C)C(=O)NS(=O)(=O)C1CC1 | > 920 | – | 2.28 | – |
| C=C[C@@H]1C[C@]1(NC(=O)[C@@H]1C[C@@](OC)(c2ccc(-c3ccncc3)cc2)CN1C(=O)[C@@H](NC(=O)OC1CCCC1)C(C)(C)C)C(=O)NS(=O)(=O)C1CC1 | > 790 | 1.83 | 1.32 | – |
